Laboratory results published in the supplement of paper PMC10307832.

Key:
Test in all cases: relative viability (nuclei count vs DMSO), 5 days (fraction); higher = more cells survive
[1] = compound: C[C@@]1(C(=O)Nc2ccc(F)nc2)CCCN1c1nc(Nc2cc(C3CC3)n[nH]2)c2cccn2n1 + Nc1nc2[nH]cc(CCc3ccc(C(=O)N[C@@H](CCC(=O)O)C(=O)O)cc3)c2c(=O)[nH]1 [Pemetrexed] (partner 0.2 µM)
Procedure, shortened: (§1)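 A single step with final 0.05% Triton X-100, 1% formaldehyde and 1 ug/ml Hoechst fixed the cells and stained nuclei 5 days after treatment. Lung cancer cell lines in 1536-well plates had been treated by pin tool the day after seeding with one drug alone or a fixed anchor-drug dose plus five library-drug doses (not always all listed) in √10 steps, and nuclei were counted on 4× images. Relative viability is the ratio of nuclei in treated wells to nuclei in vehicle wells, taken as the median of duplicate plates.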

[2] = compound: CC1(C)CNc2cc(NC(=O)c3cccnc3NCc3ccncc3)ccc21 [Motesanib] + COc1cccc2cc(-c3nc([C@H]4CC[C@H](C(=O)O)CC4)n4ncnc(N)c34)[nH]c12 [OSI-027] (partner 0.5 µM)
Procedure, shortened: as §1

[3] = compound: C[C@@]1(C(=O)Nc2ccc(F)nc2)CCCN1c1nc(Nc2cc(C3CC3)n[nH]2)c2cccn2n1
Procedure, shortened: (§2)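 Following overnight incubation at 37 °C, lung cancer cell lines in 1536-well plates were pinned with five library-drug doses (not always all listed) in √10 steps on vehicle-anchored plates. The cells then spent 5 days without medium change before a combined fix, permeabilisation and Hoechst stain, 4× imaging and MetaXpress nuclear counts. Viability is the treated-to-vehicle ratio of nuclei, taken as the median across plates. Only plates with control CV below 25% and at least one doubling passed.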

[4] = compound: CC1(C)CNc2cc(NC(=O)c3cccnc3NCc3ccncc3)ccc21 [Motesanib]
Procedure, shortened: as §2

PC-14
relative viability ([1]; first compound 0.04 µM): 0.154
relative viability ([1]; first compound 0.1265 µM): 0.155
relative viability ([1]; first compound 0.4 µM): 0.134
relative viability ([1]; first compound 1.265 µM): 0.121
relative viability ([2]; first compound 0.01 µM): 0.868
relative viability ([2]; first compound 0.03162 µM): 1.01
relative viability ([2]; first compound 0.1 µM): 0.704
relative viability ([2]; first compound 0.3162 µM): 0.844
relative viability ([2]; first compound 1 µM): 0.849
relative viability ([3]; 0.04 µM): 1.04
relative viability ([3]; 0.1265 µM): 0.769
relative viability ([3]; 0.4 µM): 0.875
relative viability ([3]; 1.265 µM): 0.946
relative viability ([4]; 0.01 µM): 0.977
relative viability ([4]; 0.03162 µM): 0.995
relative viability ([4]; 0.1 µM): 0.974
relative viability ([4]; 0.3162 µM): 1.07
relative viability ([4]; 1 µM): 1.05

RERF-LC-KJ
relative viability ([1]; first compound 0.04 µM): 0.467
relative viability ([1]; first compound 0.1265 µM): 0.421
relative viability ([1]; first compound 0.4 µM): 0.438
relative viability ([1]; first compound 1.265 µM): 0.436
relative viability ([2]; first compound 0.01 µM): 0.637
relative viability ([2]; first compound 0.03162 µM): 0.565
relative viability ([2]; first compound 0.1 µM): 0.582
relative viability ([2]; first compound 0.3162 µM): 0.59
relative viability ([2]; first compound 1 µM): 0.593
relative viability ([3]; 0.04 µM): 0.937
relative viability ([3]; 0.1265 µM): 0.797
relative viability ([3]; 0.4 µM): 0.828
relative viability ([3]; 1.265 µM): 0.838
relative viability ([4]; 0.01 µM): 0.899
relative viability ([4]; 0.03162 µM): 0.981
relative viability ([4]; 0.1 µM): 1
relative viability ([4]; 0.3162 µM): 0.952
relative viability ([4]; 1 µM): 1.01

SK-LU-1
relative viability ([1]; first compound 0.04 µM): 1.07
relative viability ([1]; first compound 0.1265 µM): 0.833
relative viability ([1]; first compound 0.4 µM): 0.778
relative viability ([1]; first compound 1.265 µM): 0.85
relative viability ([2]; first compound 0.01 µM): 0.35
relative viability ([2]; first compound 0.03162 µM): 0.36
relative viability ([2]; first compound 0.1 µM): 0.401
relative viability ([2]; first compound 0.3162 µM): 0.41
relative viability ([2]; first compound 1 µM): 0.394
relative viability ([3]; 0.04 µM): 0.979
relative viability ([3]; 0.1265 µM): 0.938
relative viability ([3]; 0.4 µM): 0.854
relative viability ([3]; 1.265 µM): 0.918
relative viability ([4]; 0.01 µM): 0.979
relative viability ([4]; 0.03162 µM): 1.05
relative viability ([4]; 0.1 µM): 1.12
relative viability ([4]; 0.3162 µM): 1.16
relative viability ([4]; 1 µM): 1.14
